Test results reported in patent publication US12030896B2, “PIKfyve inhibitors” (Mayo Foundation for Medical Education and Research, priority 2018, dated 2024).
“Also recorded” adds a separate entry of the source.

Key:
468 kinases = test: Kinase selectivity panel (Treespot dendrogram); format: binding; conditions: for number of kinases blocked to 1% activity level / number of kinases blocked to 10% activity level / number of kinases blocked to 35% activity level: 5000 nM; for selectivity for PIKfyve: comparison of Example 1, Example 3 and apilimod
Method: In contrast, 50 nM Apilimod inhibited two kinases to 1% or 10%, and 3 kinases to 35% of control. To examine non-specific binding at higher concentrations, Example 1, Example 3, and Apilimod were tested at 5000 nM. […] PIKfyve is represented at the bottom left of each dendrogram.

[1] = test system: Human colorectal carcinoma cell lines (HCT116, HT29); test: Killing of colorectal carcinoma cell lines (Cell-titer glow); format: cell-based; conditions: HCT116, HT29 vs brain tumor cell lines
Method: Human colorectal carcinoma cell lines were similarly tested for killing by the compound. (ATP activity is defined by use of the Cell-titer glow luminescence assay). […] All experiments were performed using RPMI media (Life Technologies) as the base formulation for “complete” media. HT29 cells require physical scraping in addition to trypsin to dissociate from tissue culture plastic.

[2] = test system: Human osteosarcoma cells (U2OS, 143B, MG63, and SAOS2) and human pancreatic cancer cells (Panc-1, CFPAC); test: Killing of osteosarcoma and pancreatic cell lines (Alamar Blue); format: cell-based; conditions: 72 hrs
Method: Human osteosarcoma cells (U2OS, 143B, MG63, and SAOS2) and human pancreatic cancer cells (Panc-1, CFPAC) were similarly tested for killing by the compound, as shown in FIG. 5. All experiments in FIG. 5 were performed using DMEM:F12 media (Life Technologies) as the base formulation for “complete” media for experiments with 143B and MG63 cells. Also, Alamar Blue was used to assay the relative number of viable cells per well after 72 hrs of growth. For these assays, growth media was removed from the cells, and replaced with fresh (“complete) media containing Alamar Blue reagent (Life Technologies) diluted 1:10. Plates were incubated at 5% CO2, 37° C. for 40 min then removed from the incubator and fluorescence was measured using a Synergy H1 microplate reader (Excitation: 560 nm Emission: 590 nm). Values represent raw photo counts minus the value of a well with Alamar Blue reagent (1:10 in medium) but no cells.

[3] = test system: Murine lymphoma cells (E2409, EC+F); test: Killing of murine lymphoma cells, 48 hour assay; format: cell-based
Method: All experiments in FIG. 6 were performed using RPMI media (Life Technologies) was used as the base formulation and culture medium also contained 1 mM Sodium Pyruvate, 100 mM HEPES, 2 mM additional L-Glutamine, 55 uM 2-mercaptoethanol, and 1×MEM NEAA Solution (all from Life Technologies). Trypsin was not necessary for these non-adherent cells. Presto Blue reagent (Life Technologies) was used as an endpoint assay using the same procedure described in previously for Alamar Blue, with a 30 minute incubation time.

murine lymphoma cells = test: Vacuolization seen by light microscopy; format: cell-based
Method: Vacuolization due to treatment with Example 1 compound was extremely rapid, becoming visible by light microscopy within 30 minutes or less.

U251 glioblastoma cells = test: LC3 / p62 western blotting (autophagy); format: cell-based, human
Method: Macroautophagy (hereafter “autophagy”) is a process that requires precise fusion of endosomes, autophagosomes, and lysosomes. Lysates from cells treated with Example 1 were prepared and probed by western blotting for LC3-I and LC3-II. Increased levels of LC3-II and increased p62 (sequestesome) were found showing the increased drive to undergo autophagy, in the face of inability to complete the process (i.e. ineffective autophagy). Lysosomes are the final destination of proteins destined for degradation by autophagy, and proteolysis in this organelle depends upon cathepsins among other enzymes.
FIG. 23 contains images showing induction of autophagy the Example 1 as evidenced by accumulation of LC3 over time. U251 glioblastoma cells were treated with 25, 500, or 20,000 nM MC042 for the indicated time periods, and then lysates prepared and blotted for LC3 and tubulin (loading control). Starting a t 6 hours, and becoming more evident by 24 hours, LC3-II (the lower band marked LC3) accumulated, indicating activation of autophagy.

U251 glioblastoma cell = test: Cell killing in combination with vemurafenib; format: cell-based, human
Method: A 25 mM stock of vemurafenib (obtained from Selleckchem) in DMSO was diluted to 2× the indicated concentration into the cell suspension immediately prior to plating the cell suspension onto the pre-diluted Example 1 or Example 3, to result in a final 1× concentration of both compounds.
See FIG. 13 for showing of U251 glioblastoma cell killing by Example 1 alone or in the presence of 10 μM vemurafenib over a 72 hour time course.

[4] = test system: Glioblastoma (T98G, U251) or colorectal cancer cell lines (HT29, RKO, HCT116); test: Killing of glioblastoma and colorectal cancer cell lines by Example 3; format: cell-based
Method: Experiments were performed using DMEM-based media for the glioblastoma lines and RMPI-based media for the colorectal lines.

Structure (SMILES)	number of kinases blocked to 1% of control (468 kinases; 50 nM, 468 kinases)	number of kinases blocked to 10% of control (468 kinases; 50 nM, 468 kinases)	number of kinases blocked to 35% of control (468 kinases; 50 nM, 468 kinases)	number of kinases blocked to 1% activity level (468 kinases)	number of kinases blocked to 10% activity level (468 kinases)	number of kinases blocked to 35% activity level (468 kinases)	selectivity for PIKfyve (468 kinases)	sensitivity to compound-induced death [1]	cell killing [2]	cell killing [3]	time until vacuolization visible by light microscopy (murine lymphoma cells)	induction of LC3 (U251 glioblastoma cells; 1 μM)	p62 degradation (U251 glioblastoma cells; 25, 500, or 20,000 nM)	LC3-II level (U251 glioblastoma cells; 25, 500, or 20,000 nM, starting at 6 hours, more evident by 24 hours)	cell killing on addition of vemurafenib (U251 glioblastoma cell; low concentrations of Example 1 (e.g., 0.5 μM) + 10 μM vemurafenib, 72 hour)	sensitivity to killing [4]	killing U251 in combination with vemurafenib (U251 glioblastoma cell)
Cc1ccc(Nc2nc(N/N=C/c3c[nH]c4ccccc34)nc(N3CCOCC3)n2)cc1 [Example 1, (E)-4-(2-((1H-indol-3-yl)methylene)hydrazinyl)-6-morpholino-N-(p-tolyl)-1,3,5-triazin-2-amine]	1	did not block other kinases	did not block other kinases	2	4	11	more selective	more sensitive	killing	killed by relatively low concentrations	≤ 30 min	less robust	not degraded	accumulated	significantly improves cell killing		
Cc1ccc(Nc2nc(N/N=C/c3c[nH]c4ccccc34)cc(N3CCOCC3)n2)cc1 [Example 3, (E)-4-(2-((1H-indol-3-yl)methylene)hydrazinyl)-6-morpholino-N-(p-tolyl)pyrimidin-2-amine]				1	1	4	more selective; also recorded: highest selectivity									sensitive to killing	synergistic
